Assay results as given in ChEMBL document CHEMBL3758145, “Synthesis of 3-acyloxyxanthone derivatives as α-glucosidase inhibitors: A further insight into the 3-substituents' effect” (Bioorg Med Chem, 2016).

How the values were obtained:
Set-up in all cases: species or system Saccharomyces cerevisiae
[1] = Inhibition of yeast alpha-glucosidase using PNP glycoside as substrate preincubated for 30 mins followed by substrate addition measured for 60 secs by spectrophotometric analysis
[2] = Non-competitive inhibition of yeast alpha-glucosidase using PNP glycoside as substrate assessed as enzyme-inhibitor complex preincubated for 30 mins followed by substrate addition measured for 60 secs by Lineweaver-Burk plot analysis
[3] = Non-competitive inhibition of yeast alpha-glucosidase using PNP glycoside as substrate assessed as enzyme-substrate-inhibitor complex preincubated for 30 mins followed by substrate addition measured for 60 secs by Lineweaver-Burk plot analysis

IC50 [1] [µM]	Ki [2] [µM]	Ki [3] [µM]	SMILES
42.6			O=C(Oc1cc(O)c2c(=O)c3ccccc3oc2c1)c1cccnc1
11.6	18	17.4	O=C(Oc1cc(O)c2c(=O)c3ccccc3oc2c1)c1cccc(Br)c1
21.6			O=C(Oc1cc(O)c2c(=O)c3ccccc3oc2c1)c1cccc2ccccc12
42			O=C(Oc1cc(O)c2c(=O)c3ccccc3oc2c1)c1ccccn1
23.7			O=C(Oc1cc(O)c2c(=O)c3ccccc3oc2c1)c1ccncc1
21.8			O=C(Oc1cc(O)c2c(=O)c3ccccc3oc2c1)c1ccccc1Cl
31.6			O=C(Oc1cc(O)c2c(=O)c3ccccc3oc2c1)c1ccccc1F
106			Cc1ccc(C(=O)Oc2cc(O)c3c(=O)c4ccccc4oc3c2)cc1
10.6	13.3	12.1	CC(C)(C)[Si](C)(C)Oc1ccc(C(=O)Oc2cc(O)c3c(=O)c4ccccc4oc3c2)cc1
23.2			COc1ccc(C(=O)Oc2cc(O)c3c(=O)c4ccccc4oc3c2)cc1
19.8			CNc1ccc(C(=O)Oc2cc(O)c3c(=O)c4ccccc4oc3c2)cc1
36.1			O=C(Oc1cc(O)c2c(=O)c3ccccc3oc2c1)c1ccccc1
30.6			O=C(Oc1cc(O)c2c(=O)c3ccccc3oc2c1)c1ccc2ccccc2c1
13.3	17.8	15.5	O=C(Oc1cc(O)c2c(=O)c3ccccc3oc2c1)c1ccc(O)cc1
145			O=c1c2ccccc2oc2cc(O)cc(O)c12
58.2			COc1cc(C(=O)Oc2cc(O)c3c(=O)c4ccccc4oc3c2)cc(OC)c1OC
46.7			O=C(/C=C/c1ccccc1)Oc1cc(O)c2c(=O)c3ccccc3oc2c1
40			OC[C@H]1NC[C@H](O)[C@@H](O)[C@@H]1O [DUVOGLUSTAT]
